Measurements reported in US20020035061A1, “COMPOSITIONS AND METHODS FOR TREATING INFECTIONS USING CATIONIC PEPTIDES ALONE OR IN COMBINATION WITH ANTIBIOTICS” (priority 1996, published 2002).

Tested on: microorganisms with acquired resistance
Assay: microbe, parasite or virus in culture
Format: cell-based
Details: for Peptide MIC: in µg/mL; for FIC: peptide + Ceftriaxone

KWKSFIKKLTSAAKKVVTTAKPLISS [MBI 26] was tested, and the “Gentamicin MIC + Peptide” value (A. baumannii ABI001) was 4 µg/mL, the “Peptide MIC + Gentamicin” value (A. baumannii ABI001) was 4 µg/mL and the “Peptide MIC Alone” value (A. baumannii ABI001, Gentamicin section) was 8 µg/mL. For the same sequence, the “Gentamicin MIC + Peptide” value (A. baumannii ABI002) was 0.5 µg/mL, the “Peptide MIC + Gentamicin” value (A. baumannii ABI002) was 4 µg/mL and the “Peptide MIC Alone” value (A. baumannii ABI002, Gentamicin section) was 8 µg/mL. The “Ceftriaxone MIC + Peptide” value (A. baumannii ABI005) was 0.5 µg/mL, the “Peptide MIC + Ceftriaxone” value (A. baumannii ABI005) was 1 µg/mL and the “Peptide MIC Alone” value (A. baumannii ABI005, Ceftriaxone section) was 2 µg/mL. For the same sequence, the “Ceftriaxone MIC + Peptide” value (A. baumannii ABI006) was 8 µg/mL, the “Peptide MIC + Ceftriaxone” value (A. baumannii ABI006) was 1 µg/mL and the “Peptide MIC Alone” value (A. baumannii ABI006, Ceftriaxone section) was 2 µg/mL. The “Peptide MIC + Piperacillin” value (A. calcoaceticus 2) was 16 µg/mL, the “Piperacillin MIC + Peptide” value (A. calcoaceticus 2) was 4 µg/mL and the “Peptide MIC Alone” value (A. calcoaceticus 2, Piperacillin section) was 32 µg/mL. The “Ciprofloxacin MIC + Peptide” value (A. calcoaceticus 5) was 0.25 µg/mL, the “Peptide MIC + Ciprofloxacin” value (A. calcoaceticus 5) was 16 µg/mL and the “Peptide MIC Alone” value (A. calcoaceticus 5, Ciprofloxacin section) was >32 µg/mL. The “Peptide MIC + Piperacillin” value (A. calcoaceticus 7) was 8 µg/mL, the “Piperacillin MIC + Peptide” value (A. calcoaceticus 7) was 4 µg/mL and the “Peptide MIC Alone” value (A. calcoaceticus 7, Piperacillin section) was >32 µg/mL. The “Peptide MIC” value (A. calcoaceticus, combination with Ceftazidime) was 32, the “Peptide MIC” value (A. calcoaceticus, combination with Ciprofloxacin) was 4 and the “Ceftriaxone MIC + Peptide” value (B. cepacia BC003) was 8 µg/mL. For the same sequence, the “Peptide MIC + Ceftriaxone” value (B. cepacia BC003) was 0.125 µg/mL, the “Peptide MIC Alone” value (B. cepacia BC003, Ceftriaxone section) was >128 µg/mL and the “Peptide MIC + Piperacillin” value (E. cloacae 13) was 8 µg/mL. For the same sequence, the “Piperacillin MIC + Peptide” value (E. cloacae 13) was 4 µg/mL, the “Peptide MIC Alone” value (E. cloacae 13, Piperacillin section) was >32 µg/mL and the “Ciprofloxacin MIC + Peptide” value (E. cloacae 16) was 0.25 µg/mL. The “Peptide MIC + Ciprofloxacin” value (E. cloacae 16) was 16 µg/mL, the “Peptide MIC Alone” value (E. cloacae 16, Ciprofloxacin section) was >32 µg/mL and the “Ciprofloxacin MIC + Peptide” value (E. cloacae 17) was 0.25 µg/mL. The “Peptide MIC + Ciprofloxacin” value (E. cloacae 17) was 16 µg/mL, the “Peptide MIC Alone” value (E. cloacae 17, Ciprofloxacin section) was >32 µg/mL and the “Peptide MIC + Piperacillin” value (E. cloacae 19) was 16 µg/mL. The “Piperacillin MIC + Peptide” value (E. cloacae 19) was 4 µg/mL, the “Peptide MIC Alone” value (E. cloacae 19, Piperacillin section) was >32 µg/mL and the “Ceftriaxone MIC + Peptide” value (E. cloacae ECL015) was 4 µg/mL. For the same sequence, the “Peptide MIC + Ceftriaxone” value (E. cloacae ECL015) was 4 µg/mL, the “Peptide MIC Alone” value (E. cloacae ECL015, Ceftriaxone section) was 32 µg/mL and the “Peptide MIC + Piperacillin” value (H. influenzae 1) was 32 µg/mL. The “Piperacillin MIC + Peptide” value (H. influenzae 1) was 4 µg/mL, the “Peptide MIC Alone” value (H. influenzae 1, Piperacillin section) was >128 µg/mL and the “Peptide MIC + Piperacillin” value (H. influenzae 2) was 16 µg/mL. For the same sequence, the “Piperacillin MIC + Peptide” value (H. influenzae 2) was 16 µg/mL, the “Peptide MIC Alone” value (H. influenzae 2, Piperacillin section) was >128 µg/mL and the “Peptide MIC + Piperacillin” value (P. aeruginosa 7) was 32 µg/mL. The “Piperacillin MIC + Peptide” value (P. aeruginosa 7) was 32 µg/mL, the “Peptide MIC Alone” value (P. aeruginosa 7, Piperacillin section) was >128 µg/mL and the “Peptide MIC + Piperacillin” value (P. aeruginosa 23) was 32 µg/mL. For the same sequence, the “Piperacillin MIC + Peptide” value (P. aeruginosa 23) was 4 µg/mL, the “Peptide MIC Alone” value (P. aeruginosa 23, Piperacillin section) was >64 µg/mL and the “Peptide MIC + Piperacillin” value (P. aeruginosa 26) was 32 µg/mL. The “Piperacillin MIC + Peptide” value (P. aeruginosa 26) was 8 µg/mL, the “Peptide MIC Alone” value (P. aeruginosa 26, Piperacillin section) was >32 µg/mL and the “Ciprofloxacin MIC + Peptide” value (P. aeruginosa 30) was 0.25 µg/mL. For the same sequence, the “Peptide MIC + Ciprofloxacin” value (P. aeruginosa 30) was 2 µg/mL, the “Peptide MIC Alone” value (P. aeruginosa 30, Ciprofloxacin section) was >32 µg/mL and the “Ciprofloxacin MIC + Peptide” value (P. aeruginosa 31) was 0.25 µg/mL. For the same sequence, the “Peptide MIC + Ciprofloxacin” value (P. aeruginosa 31) was 16 µg/mL, the “Peptide MIC Alone” value (P. aeruginosa 31, Ciprofloxacin section) was >32 µg/mL and the “Gentamicin MIC + Peptide” value (P. aeruginosa PA023) was 4 µg/mL. The “Peptide MIC + Gentamicin” value (P. aeruginosa PA023) was 64 µg/mL, the “Peptide MIC Alone” value (P. aeruginosa PA023, Gentamicin section) was >128 µg/mL and the “Peptide MIC + Tobramycin” value (P. aeruginosa PA031) was 16 µg/mL. For the same sequence, the “Tobramycin MIC + Peptide” value (P. aeruginosa PA031) was 4 µg/mL, the “Peptide MIC Alone” value (P. aeruginosa PA031, Tobramycin section) was 32 µg/mL and the “Gentamicin MIC + Peptide” value (P. aeruginosa PA041) was 4 µg/mL. The “Peptide MIC + Gentamicin” value (P. aeruginosa PA041) was 16 µg/mL, the “Ciprofloxacin MIC + Peptide” value (P. aeruginosa PA41) was 1 µg/mL and the “Peptide MIC + Ciprofloxacin” value (P. aeruginosa PA41) was 32 µg/mL. The “Peptide MIC Alone” value (P. aeruginosa PA41, Ciprofloxacin section) was 128 µg/mL, the “Peptide MIC Alone” value (P. aeruginosa PA041, Gentamicin section) was 64 µg/mL and the “Ciprofloxacin MIC + Peptide” value (P. aeruginosa PA77) was 0.125 µg/mL. For the same sequence, the “Peptide MIC + Ciprofloxacin” value (P. aeruginosa PA77) was 64 µg/mL, the “Peptide MIC Alone” value (P. aeruginosa PA77, Ciprofloxacin section) was 128 µg/mL and the “Peptide MIC” value (S. aureus, combination with Ampicillin) was 0.25. For the same sequence, the “Peptide MIC” value (S. aureus, combination with Mupirocin) was 4, the “Peptide MIC + Tobramycin” value (S. epidermidis SE068) was 0.5 µg/mL and the “Tobramycin MIC + Peptide” value (S. epidermidis SE068) was 4 µg/mL. For the same sequence, the “Peptide MIC Alone” value (S. epidermidis SE068, Tobramycin section) was 2 µg/mL, the “Peptide MIC + Tobramycin” value (S. epidermidis SE071) was 8 µg/mL and the “Tobramycin MIC + Peptide” value (S. epidermidis SE071) was 0.125 µg/mL. For the same sequence, the “Peptide MIC Alone” value (S. epidermidis SE071, Tobramycin section) was 16 µg/mL, the “Peptide MIC” value (S. epidermidis, combination with Clindamycin) was 2 and the “Peptide MIC” value (S. haemolyticus, combination with Clindamycin) was 1. For the same sequence, the “Peptide MIC” value (S. haemolyticus, combination with Methicillin) was 2, the “Peptide MIC + Piperacillin” value (S. maltophilia 2) was 2 µg/mL and the “Piperacillin MIC + Peptide” value (S. maltophilia 2) was 16 µg/mL. The “Peptide MIC Alone” value (S. maltophilia 2, Piperacillin section) was 4 µg/mL, the “Peptide MIC + Piperacillin” value (S. maltophilia 4) was 8 µg/mL and the “Piperacillin MIC + Peptide” value (S. maltophilia 4) was 16 µg/mL. For the same sequence, the “Peptide MIC Alone” value (S. maltophilia 4, Piperacillin section) was 16 µg/mL, the “Ciprofloxacin MIC + Peptide” value (S. maltophilia 34) was 0.25 µg/mL and the “Peptide MIC + Ciprofloxacin” value (S. maltophilia 34) was 8 µg/mL. The “Peptide MIC Alone” value (S. maltophilia 34, Ciprofloxacin section) was >32 µg/mL, the “Ciprofloxacin MIC + Peptide” value (S. maltophilia 35) was 0.5 µg/mL and the “Peptide MIC + Ciprofloxacin” value (S. maltophilia 35) was 16 µg/mL. For the same sequence, the “Peptide MIC + Piperacillin” value (S. maltophilia 35) was 16 µg/mL, the “Piperacillin MIC + Peptide” value (S. maltophilia 35) was 4 µg/mL and the “Peptide MIC Alone” value (S. maltophilia 35, Ciprofloxacin section) was >32 µg/mL. For the same sequence, the “Peptide MIC Alone” value (S. maltophilia 35, Piperacillin section) was >32 µg/mL, the “Peptide MIC + Piperacillin” value (S. maltophilia 41) was 32 µg/mL and the “Piperacillin MIC + Peptide” value (S. maltophilia 41) was 16 µg/mL. For the same sequence, the “Peptide MIC Alone” value (S. maltophilia 41, Piperacillin section) was >32 µg/mL, the “Gentamicin MIC + Peptide” value (S. maltophilia SMA017) was 1 µg/mL and the “Peptide MIC + Gentamicin” value (S. maltophilia SMA017) was 8 µg/mL. The “Peptide MIC Alone” value (S. maltophilia SMA017, Gentamicin section) was 16 µg/mL, the “Gentamicin MIC + Peptide” value (S. maltophilia SMA019) was 2 µg/mL and the “Peptide MIC + Gentamicin” value (S. maltophilia SMA019) was 2 µg/mL. For the same sequence, the “Peptide MIC Alone” value (S. maltophilia SMA019, Gentamicin section) was 4 µg/mL, the “Peptide MIC + Tobramycin” value (S. maltophilia SMA027) was 64 µg/mL and the “Tobramycin MIC + Peptide” value (S. maltophilia SMA027) was 4 µg/mL. The “Peptide MIC Alone” value (S. maltophilia SMA027, Tobramycin section) was >128 µg/mL, the “Peptide MIC” value (S. maltophilia, combination with Piperacillin) was 32 and the “Peptide MIC + Piperacillin” value (S. marcescens 1) was 16 µg/mL. For the same sequence, the “Piperacillin MIC + Peptide” value (S. marcescens 1) was 2 µg/mL, the “Peptide MIC Alone” value (S. marcescens 1, Piperacillin section) was >128 µg/mL and the FIC (A. baumannii ABI005) was 0.53. It also gave an FIC (A. baumannii ABI006) of 0.56, an FIC (B. cepacia BC003) of 0.50 and an FIC (E. cloacae ECL015) of 0.19.
